Values quoted from earlier work as cited in patent US20030056236A1, “Model” (priority 2001, published 2003).

Test system: 5-HIAA levels
Conditions: after treatment; for elevate 5-HIAA levels: rat medial prefrontal cortex; for effect on 5-HIAA levels in the striatum: rat striatum

Row | Compound | elevate 5-HIAA levels | effect on 5-HIAA levels in the striatum
1 | Cc1nc2n(c(=O)c1CCN1CCC(c3noc4cc(F)ccc34)CC1)CCCC2 [Risperidone] | elevate | no effect
2 | CCNC(=O)N1CCN(CCCC(c2ccc(F)cc2)c2ccc(F)cc2)CC1 [amperozide] | elevate | no effect
3 | Cc1nc2sccn2c(=O)c1CCN1CCC(=C(c2ccc(F)cc2)c2ccc(F)cc2)CC1 [ritanserin] | to a lesser extent | no effect
